25 compounds from patent US9751854B2 (Millennium Pharmaceuticals, Inc., priority 2014, dated 2017) can be followed below.

SMILES strings stand for the structures.

The target in the first test is human VPS34 (Homo sapiens (Human), UniProt Q8NEB9). The test is described as follows: Human VPS34 enzyme assay (Adapta TR-FRET ADP detection). In kind it is biochemical. Details: Percent Inhibition: dose or concentration left out as unconfirmed.
Sequence of human VPS34 (Q8NEB9 whole entry): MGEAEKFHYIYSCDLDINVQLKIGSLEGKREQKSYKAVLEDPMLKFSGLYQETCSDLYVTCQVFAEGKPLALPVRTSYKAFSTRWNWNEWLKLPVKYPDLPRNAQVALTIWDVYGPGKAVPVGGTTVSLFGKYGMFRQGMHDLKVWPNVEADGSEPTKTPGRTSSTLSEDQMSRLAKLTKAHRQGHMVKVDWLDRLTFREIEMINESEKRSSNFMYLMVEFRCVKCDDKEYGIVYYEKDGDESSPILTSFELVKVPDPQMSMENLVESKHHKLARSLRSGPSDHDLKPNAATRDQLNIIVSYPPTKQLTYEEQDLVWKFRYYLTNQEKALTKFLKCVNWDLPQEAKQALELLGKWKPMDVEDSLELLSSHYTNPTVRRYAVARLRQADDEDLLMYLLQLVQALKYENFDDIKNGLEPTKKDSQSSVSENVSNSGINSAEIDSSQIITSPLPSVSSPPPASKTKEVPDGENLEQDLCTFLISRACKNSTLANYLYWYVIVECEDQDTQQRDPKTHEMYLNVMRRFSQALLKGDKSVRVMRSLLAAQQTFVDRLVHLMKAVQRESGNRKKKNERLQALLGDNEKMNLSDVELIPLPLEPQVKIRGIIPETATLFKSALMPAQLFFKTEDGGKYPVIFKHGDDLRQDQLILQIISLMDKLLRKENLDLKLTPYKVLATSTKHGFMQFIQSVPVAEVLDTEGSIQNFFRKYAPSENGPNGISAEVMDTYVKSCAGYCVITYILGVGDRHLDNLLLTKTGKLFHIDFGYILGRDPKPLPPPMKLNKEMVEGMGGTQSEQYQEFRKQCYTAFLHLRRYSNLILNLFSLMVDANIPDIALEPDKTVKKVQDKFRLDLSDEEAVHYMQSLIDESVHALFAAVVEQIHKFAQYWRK
Settings: not given
In general terms: TR-FRET usually uses a lanthanide donor and a delayed reading to cut background.
With `Cc1nc(Nc2cc(-c3cnc(Cl)c(NS(=O)(=O)c4ccc(F)cc4F)c3C)ccn2)ccc1C#N` [Compound I-238, N-[6-chloro-2′-[(5-cyano-6-methylpyridin-2-yl)amino]-4-methyl-3,4′-bipyridin-5-yl]-2,4-difluorobenzenesulfonamide], the “Percent Inhibition” value was found to be 93%.
Still for that read-out and setting: as for `CCc1c(-c2ccnc(Nc3ccnc(C)n3)c2)cnc(Cl)c1NS(=O)(=O)c1ccc(F)cc1F` [Compound I-259, N-{6-chloro-4-ethyl-2′-[(2-methylpyrimidin-4-yl)amino]-3,4′-bipyridin-5-yl}-2,4-difluorobenzenesulfonamide], the figure is 79%.

The test is the same for the next values; noted with them: IC50 range class.
Regarding `CC(=O)Nc1cc(-c2cnc(Cl)c(NS(=O)(=O)N(C)C)c2C)ccn1` [Compound I-236, N-{6-chloro-5-[(dimethylsulfamoyl)amino]-4-methyl-3,4′-bipyridin-2′-yl}acetamide], the IC50 (commonly the concentration that inhibits the measured activity by half) lay within 10 to 50 nM.
The same measure, in the same setting: as for `Cc1ncc(-c2ccnc(Nc3ccnc(C(F)(F)F)n3)c2)cc1NS(=O)(=O)c1ccc(F)cc1F` [Compound I-237, 2,4-difluoro-N-(6-methyl-2′-{[2-(trifluoromethyl)pyrimidin-4-yl]amino}-3,4′-bipyridine-5-yl)benzenesulfonamide], the figure is 10 to 50 nM; as for `Cc1nc(Nc2cc(-c3cnc(Cl)c(NS(=O)(=O)c4ccc(F)cc4F)c3C)ccn2)ccc1C#N` [Compound I-238, N-[6-chloro-2′-[(5-cyano-6-methylpyridin-2-yl)amino]-4-methyl-3,4′-bipyridin-5-yl]-2,4-difluorobenzenesulfonamide], less than 10 nM; as for `Cc1ncc(-c2ccnc(Nc3ccncn3)c2)cc1NS(=O)(=O)c1ccc(F)cc1F` [Compound I-239, 2,4-difluoro-N-(6-methyl-2′-(pyrimidin-4-ylamino)-3,4′-bipyridin-5-yl]benzenesulfonamide], less than 10 nM.
Still for that read-out and setting: then `CC(=O)Nc1cc(-c2cnc(Cl)c(NS(=O)(=O)c3ccccc3Cl)c2C)ccn1` [Compound I-240, N-(6-chloro-5-{[(2-chlorophenyl)sulfoayl]amino}-4-methyl-3,4′-bipyridin-2′-yl)acetamide], with 10 to 50 nM; and `COC(=O)Nc1cc(-c2cnc(C)c(NS(=O)(=O)N(C)C)c2)ccn1` [Compound I-241, methyl (5-[(dimethylsulfamoyl)amino]-6-methyl-3,4′-bipyridin-2′-yl]carbamate], with 10 to 50 nM; and `Cc1nccc(Nc2cc(-c3cnc(Cl)c(S(=O)(=O)NC45CC(C4)C5)c3)ccn2)n1` [Compound I-242, N-(bicyclo[1.1.1]pent-1-yl)-6-chloro-2′-[(2-methylpyrimidin-4-yl)amino]-3,4′-bipyridine-5-sulfonamide], with 10 to 50 nM.
Compound `CC(=O)Nc1cc(-c2cnc(Cl)c(NS(=O)(=O)c3ccc(Cl)cc3Cl)c2C)ccn1` [Compound I-243, N-(6-chloro-5-{[(2,4-dichlorophenyl)sulfonyl]amino}-4-methyl-3,4′-bipyridin-2′-yl)acetamide] came in with an IC50 of 10 to 50 nM.
Same read-out and setting: then `Cc1ncc(-c2ccnc(NC(=O)C3CC3(F)F)c2)cc1NS(=O)(=O)N(C)C` (stereo not drawn) [Compound I-244, N-{5-[(dimethylsulfamoyl)amino]-6-methyl-3,4′-bipyridin-2′-yl}-2,2-difluorocyclopropanecarboxamide], with 10 to 50 nM; and `COc1nccc(Nc2cc(-c3cncc(C(=O)N(C)C45CC(C4)C5)c3)ccn2)n1` [Compound I-245, N-(bicyclo[1.1.1]pent-1-yl)-2′-[(2-methoxypyrimidin-4-yl)amino]-N-methyl-3,4′-bipyridine-5-carboxamide], with 10 to 50 nM; and `Cc1ncc(-c2ccnc(Nc3ccnc(C4CC4)n3)c2)cc1C(=O)N1CCC1` [Compound I-246, azetidin-1-yl{2′-[(2-cyclopropylpyrimidin-4-yl)amino]-6-methyl-3,4′-bipyridin-5-yl}methanone], with 10 to 50 nM.
On the same count and under the same terms, as for `CC(=O)Nc1cc(-c2cnc(C)c(NS(=O)(=O)c3ccc(F)cc3F)c2C)ccn1` [Compound I-247, N-(5-{[(2,4-difluorophenyl)sulfonyl]amino}-4,6-dimethyl-3,4′-bipyridin-2′-yl)acetamide], the figure is 10 to 50 nM; as for `COc1ncc(-c2ccnc(NC(C)=O)c2)c(C)c1NS(=O)(=O)c1ccc(F)cc1F` [Compound I-248, N-(5-{[(2,4-difluorophenyl)sulfonyl]amino}-6-methoxy-4-methyl-3,4′-bipyridin-2′-yl)acetamide], 10 to 50 nM.
The same measure, in the same setting: as for `Cc1nccc(Nc2cc(-c3cnc(C)c(NC(=O)c4ccc(F)cc4F)c3)ccn2)n1` [Compound I-249, 2,4-difluoro-N-{6-methyl-2′-[(2-methylpyrimidin-4-yl)amino]-3,4′-bipyridin-5-yl}benzamide], the figure is 50 to 100 nM.
Compound `CC(=O)Nc1cc(-c2cnc(Cl)c(NS(=O)(=O)c3ccc(F)cc3F)c2C)c(C)cn1` [Compound I-250, N-(6-chloro-5-{[(2,4-difluorophenyl)sulfonyl]amino}-4,5′-dimethyl 3,4′-bipyridin-2′-yl)acetamide] yielded a half-inhibitory concentration (IC50) of 10 to 50 nM.
On the same count and under the same terms, then `CC(=O)Nc1cc(-c2cnc(Cl)c(NS(=O)(=O)c3ccccc3F)c2C)ccn1` [Compound I-251, N-(6-chloro-5-{[(2-fluorophenyl)sulfonyl]amino}-4-methyl-3,4′-bipyridin-2′-yl)acetamide], with 10 to 50 nM; and `COc1ncc(-c2ccnc(Nc3ccnc(C)n3)c2)cc1C(=O)N(C)c1ccc(F)cc1F` [Compound I-252, N-(2,4-difluorophenyl)-6-methoxy-N-methyl-2′-[(2-methylpyrimidin-4-yl)amino]-3,4′-bipyridine-5-carboxamide], with 10 to 50 nM; and `Cc1nccc(Nc2cc(-c3cnc(C)c(C(=O)O)c3)ccn2)n1` [Compound I-253, 6-methyl-2′-((2-methylpyrimidin-4-yl)amino)-[3,4′-bipyridine]-5-carboxylic acid], with 10 to 50 nM.
Same read-out and setting: then `Cc1c(-c2ccnc(NC(=O)C3CC3(F)F)c2)cnc(Cl)c1NS(=O)(=O)c1ccc(F)cc1F` (stereo not drawn) [Compound I-254, N-(6-chloro-5-{[(2,4-difluorophenyl)sulfonyl]amino}-4-methyl-3,4′-bipyridin-2′-yl)-2,2-difluorocyclopropanecarboxamide], with 10 to 50 nM; and `COC(=O)Nc1cc(-c2cnc(Cl)c(NS(=O)(=O)c3ccc(F)cc3F)c2C)ccn1` [Compound I-255, methyl (6-chloro-5-{[(2,4-difluorophenyl)sulfonyl]amino}-4-methyl-3,4′-bipyridin-2′-yl)carbamate], with less than 10 nM; and `CNc1c(Cl)ncc(-c2ccnc(Nc3ccnc(C)n3)c2)c1C` [Compound I-256, 6-chloro-N-5-4-dimethyl-N-2-(2-methylpyrimidin-4-yl)-3,4′-bipyridine-2′,5-diamine], with 10 to 50 nM.
On the same count and under the same terms, then `CC(=O)Nc1cc(-c2cnc(C)c(NS(=O)(=O)N3CCC3)c2)ccn1` [Compound I-257, N-{5-[(azetidin-1-ylsulfonyl)amino]-6-methyl-3,4′-bipyridin-2′-yl}acetamide], with 10 to 50 nM; and `CC(=O)Nc1cc(-c2cc(NS(=O)(=O)c3ccc(F)cc3F)c(C)[n+]([O-])c2)ccn1` [Compound I-258, N-[4-(5-{[(2,4-difluorophenyl)sulfonyl]amino}-6-methyl-1-oxidopyridin-3-yl)pyridin-2-yl]acetamide], with 10 to 50 nM.
For `CCc1c(-c2ccnc(Nc3ccnc(C)n3)c2)cnc(Cl)c1NS(=O)(=O)c1ccc(F)cc1F` [Compound I-259, N-{6-chloro-4-ethyl-2′-[(2-methylpyrimidin-4-yl)amino]-3,4′-bipyridin-5-yl}-2,4-difluorobenzenesulfonamide], the IC50 was less than 10 nM.
Same read-out and setting: then `CC(=O)Nc1cc(-c2cnc(C)c(NS(=O)(=O)N(C)C)c2C)ccn1` [Compound I-260, N-{5-[(dimethylsulfamoyl)amino]-4,6-dimethyl-3,4′-bipyridin-2′-yl}acetamide], with 10 to 50 nM.
